Legend:
mice [1] = type: in vivo; conditions: for changes in blood chemistry or hematology results: mice vaccinated SC days 1 and 15; for weight loss (body weight): mice, 50 mcg TiterQuil-1055, 20 mcg QS-21; for liver histopathology (hepatocellular cytoplasmic vacuolization / vacuolar changes): sacrificed day 22, 33 tissues examined
Method: (§1) Adacel doses containing 1, 0.3, and 0.1 mcg of pertussis toxin per mouse were administered subcutaneously (SC, with no immunological adjuvant), using 2 vaccinations 4 weeks apart, resulting in a mean of 1,618 mcg, 898 mcg, and 107 mcg respectively of anti-PT antibody per ml of serum drawn 2 weeks after the second vaccination. The 0.1 mcg dose was indistinguishable from unvaccinated controls (96 mcg/ml). A 0.5 mcg dose of Adacel was selected for a pharmacology/toxicology (pharm/tox) study. The serological results for this study are summarized in FIG. 3 of the present application.
A pharm/tox study was conducted in 7 groups of 5 mice: 1) PBS alone, 2) 50 mcg TiterQuil-1055, 3) 20 mcg QS-21, 4) Adacel 2.5 mcg pertussis toxin (⅕ the human dose), 5) Adacel + QS-21 (20 mcg QS-21), 6) Adacel + TiterQuil-1055 (50 mcg), 7) Adacel + TiterQuil-1055 (50 mcg). Mice were vaccinated SC on days 1 and 15, weighed daily, and bled and sacrificed on day 22, except for group 7 which was sacrificed on day 29. […] Histopathology of 33 different tissues was performed on all mice. Detected abnormalities were restricted to the liver. […] This abnormality was short lived and was no detected in group 7, which was sacrificed one week after groups 1-6.

[2] = Companion toxicity study, body mass three days after immunization; type: in vivo, mice
Method: (§2) Natural and synthetic QS-21 (SQS-21 or SAPONEX®) and a variety of analogs were tested for hemolytic activity. […] FIG. 5 depicts results a hemolytic assay performed with TiterQuil-1055. In a companion toxicity study three days after immunization, animals that received 20 mcg of QS-21 have lost 8-10% of their body mass on average, whereas PBS, TiterQuil-101 and TiterQuil-1055 recipients have gained 5% on average (normal weight gain in young mice). Without being bound by theory, hemolytic activity may be a direct result of degradation of QS-21 under physiologic conditions and TiterQuil-1055′s lack of hemolytic activity may result from improved stability.

mice [3] = experiment: Engerix-B (hepatitis B vaccine) immunogenicity in mice, anti-HBsAg antibody; type: in vivo
Method: (§3) Experiments were conducted with Engerix-B (HBV adult vaccine) in groups of 10 mice. Initially 3 mcg, 1 mcg, 0.3 mcg, 0.1 mcg, and 0.03 mcg Engerix-B doses per mouse were tested. Mean resulting anti-HBsAg antibody levels were 92,512 mcg/ml, 64,255 mcg/ml, 24,847 mcg/ml, 3,682 mcg/ml, and 910 mcg/ml respectively, with the 0.03 dose being indistinguishable from controls (821 mcg/ml). The 0.3 mcg dose of Engerix-B was selected for further studies and this dose was used mixed with various doses of TiterQuil-1055 (TQL-1055 / Compound I-4). The resulting geometric mean antibody concentrations are summarized in FIG. 4 of the present application.

hemolysis = experiment: Hemolytic assay; type: cell-based
Method: FIG. 5 depicts data showing the hemolytic activity of QS-21 at 2uM, 5uM and 20uM, and Compound 26 (TiterQuil-1-0-5-5 / TQL-1055) at 20uM, 100uM and 200uM. % Hemolytic activity reported as % of Triton-X100/SDS lysis control.
as §2

Stability at 37° C. = type: physicochemical; conditions: for degradation: after two weeks at 37° C.
Method: as §2

mice [4] = experiment: Adacel (Tdap vaccine) immunogenicity in mice, anti-PT antibody in serum; type: in vivo; conditions: for augmentation of antibody levels compared to immunization with Adacel alone: 2 weeks after second SC immunization, adjuvant given with Adacel
Method: as §1

[5] = Body weight of mice in the Engerix-B / TiterQuil-1055 dose study; type: in vivo
Method: as §3

[6] = cited from earlier work
[7] = 50 mcg TiterQuil-1055, 20 mcg QS-21, Adacel 2.5 mcg pertussis toxin

CC1O[C@@H](OC2C(O)[C@@H](NC(=O)CCCCCCCCCCC(=O)O)C(CO)O[C@H]2OC(=O)[C@]23CCC(C)(C)CC2C2=CCC4C5(C)CC[C@H](O)C(C)(C=O)[C@@H]5CC[C@@]4(C)C2(C)CC3O)C(O)C(O)[C@H]1O[C@@H]1OC[C@@H](O)C(O)C1O (stereo partly shown) [TiterQuil-1055]
weight loss (mice [1]; mice vaccinated SC days 1 and 15, weighed daily, 50 mcg TiterQuil-1055, 20 mcg QS-21, Adacel 2.5 mcg pertussis toxin): no other mice
changes in blood chemistry or hematology results (mice [1]; [7]): No changes
weight loss (body weight) (mice [1]): No weight loss
liver histopathology (hepatocellular cytoplasmic vacuolization / vacuolar changes) (mice [1]; [7]): No changes at all
body mass gained on average [2]: 5%
increase in antibody levels compared to Engerix-B alone (mice [3]; 10 mcg TiterQuil-1055 mixed with 0.3 mcg Engerix-B): no serologic effect
increase in antibody levels compared to Engerix-B alone (mice [3]; 30 mcg TiterQuil-1055 mixed with 0.3 mcg Engerix-B): > 6 fold
increase in antibody levels compared to Engerix-B alone (mice [3]; 100 mcg TiterQuil-1055 mixed with 0.3 mcg Engerix-B): 5 fold
antibody response at high adjuvant doses (mice [3]; TiterQuil-1055 doses above 50 mcg per mouse): Lack of antibody increase or decreasing responses
hemolytic activity (hemolysis): much lower or undetectable hemolytic activity
degradation (Stability at 37° C.): without detectable degradation
stability (Stability at 37° C.; compared with QS-21): increased stability
antibody levels 2 weeks later (mice [4]; Adacel with TiterQuil-1055, 2 weeks after the first reading): further increased
augmentation of antibody levels compared to immunization with Adacel alone (mice [4]; groups of 5 mice): 70 fold
antibody levels 2 weeks after the second SC immunization (mice [4]; pharm/tox study, groups of 5 mice, Adacel alone or Adacel with TiterQuil-1055): 52,344
weight loss ([5]; 30 mcg TiterQuil-1055 dose): No weight loss
weight loss ([5]; 100 mcg TiterQuil-1055 dose): 4%
weight loss ([5]; 300 mcg TiterQuil-1055 dose): 5%

QS-21 [reference compound]
changes in blood chemistry or hematology results (mice [1]; [7]): No changes
weight loss (body weight) (mice [1]): 8-9%
liver histopathology (hepatocellular cytoplasmic vacuolization / vacuolar changes) (mice [1]; [7]): Mild vacuolar changes
body mass lost on average ([2]; 20 mcg QS-21): 8-10%
hemolytic activity (hemolysis): highly hemolytically active
tolerated (maximum) dose in cancer patients ([6]; cancer patients, above it local and systemic side effects): 100 to 150 µg
maximum dose for healthy patients ([6]; healthy patients): ~50 µg
highest practical tolerable dose ([6]; well (non-cancer) adult and child recipients): 25 to 50 µg
degradation (Stability at 37° C.): 20%
augmentation of antibody levels compared to immunization with Adacel alone (mice [4]; groups of 5 mice): 10 fold

Source: patent publication US20230357300A1, “TRITERPENE SAPONIN SYNTHESIS, INTERMEDIATES AND ADJUVANT COMBINATIONS” (priority 2017, published 2023)
